Like-named read-outs stand apart in the source and are kept apart here. No end group written: not given here.

Assay [1] has as its target DR4w4 (DRB1*0401) (Homo sapiens, UniProt P01903+P01911, A100K/A169T/F76Y/I96L/K127E/L162R/M171V/N62H/P40V/Q125Y/R42H/S133A/S149N/S66Y/V115G/V209L/W38E). Put plainly: biochemical. The class given is binding.
Assay [2] concerns the target DR7 (DRB1*0701) (Homo sapiens, UniProt P01903+P01911, A100R/A102G/A103Q/D57E/D86V/E43K/F76Y/K127E/L162R/M171V/P40G/Q125H/Q99D/R33Q/R42Y/R54Q/S133A/S66F/T210M/V115G/Y107V/Y59L/Y89S). Kind of assay: biochemical. The class given is binding.
In assay [3] the target is DRB1*1101 (Homo sapiens, UniProt P01903+P01911, A100R/A169T/A87E/I96F/K41T/L162R/M171V/P40S/Q125H/Q178H/Q39Y/Q99D/R42S/S66Y/T262R/V115G/W38E). Put plainly: biochemical.
Assay [4] deals with DRB1*0901 (Homo sapiens, UniProt P01903+P01911, A100R/A103E/D57H/D86V/F55Y/F60I/F76Y/I96F/K127E/L162R/M171V/P40D/Q125H/Q99R/R33Q/R42F/S133A/S66N/T210M/V115G/W38K/Y107V/Y59G/Y89S). Put plainly: biochemical. The format is binding.
Assay [5] addresses DRB5*0101 (Homo sapiens, UniProt P01903+Q30154). Put plainly: biochemical.
The target in assay [6] is DRB1*1302 (Homo sapiens, UniProt P01903+P01911, A100E/A169T/K41T/L162R/M171V/P40S/Q125H/Q178H/Q39Y/Q99D/R42S/S66N/T262R/V115G/W38E/Y61H). Kind of assay: biochemical. The class given is binding.
Assay [7] concerns the target DRB1*0802 (Homo sapiens, UniProt P01903+P01911, A100R/A103L/A169T/F76Y/H45Y/I96F/K41T/L162R/M171V/P40S/Q125H/Q178H/Q39Y/Q99D/R218S/R42G/S66Y/V115G/W38E). Put plainly: biochemical. The class given is binding.
In assay [8] the target is DR1 (DRB1*0101) (Homo sapiens, UniProt P01903+P01911, A100R/D57E/F55L/F60I/F76Y/I96L/L162R/M171V/P40L/Q125E/R42F/V115G/Y59C). Put plainly: biochemical. The class given is binding.
For assay [9], the target named is DRB1*0405 (Homo sapiens, UniProt P01903+P01911, A100R/A169T/D86S/F76Y/I96L/K127E/L162R/M171V/N62H/P40V/Q125Y/R42H/S133A/S149N/S66Y/V115G/V209L/W38E). Kind of assay: biochemical. The format is binding.
Assay [10] concerns the target DRB1*1501 (Homo sapiens, UniProt P01903+P01911). Put plainly: biochemical. The class given is binding.
Assay [11] has as its target HLA-A1 (A*0101) (Homo sapiens, UniProt P04439, A114D/A174V/A182V/D101N/D185E/E176A/E190D/L180R/Q94H/R68K/S129P/T187R/V100A/V91M/W191G). Put plainly: biochemical. The class given is binding.
Assay [12] concerns the target A2.1 HLA molecules (Homo sapiens, UniProt P04439, D140Y/D185E/D98H/E176V/E277Q/G131W/G231S/I119V/I121R/I166T/I218V/L300P/L318F/N151K/N90K/P208A/P217A/Q86G/Q94H/R138H/R169H/T345S). The class given is binding. More on the design: A*0201 / A2.1 Binding / A2 Bind. / A2 / A2.1 (binding capacity): scale not given here.

Chain of DRB1*1302 (P01903 26-254 limits assumed, other chains not shown): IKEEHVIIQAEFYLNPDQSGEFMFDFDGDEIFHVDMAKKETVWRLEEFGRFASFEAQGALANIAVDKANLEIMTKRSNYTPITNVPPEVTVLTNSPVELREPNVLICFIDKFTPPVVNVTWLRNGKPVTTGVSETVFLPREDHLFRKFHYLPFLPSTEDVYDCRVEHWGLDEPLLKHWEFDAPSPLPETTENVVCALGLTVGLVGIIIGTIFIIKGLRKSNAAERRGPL
Chain of DRB1*1101 (P01903 26-254 limits assumed, other chains not shown): as above

A word on the IC50: it is the concentration needed to halve the response being measured. Consider `CC(C)C[C@H](NC(=O)[C@H](CC(C)C)NC(=O)[C@@H]1CCCN1C(=O)[C@@H](N)CC(N)=O)C(=O)NCC(=O)N[C@@H](C)C(=O)N[C@@H](C)C(=O)N[C@H](C(=O)N1CCC[C@H]1C(=O)N[C@H](C(=O)NCC(=O)N[C@@H](CC(N)=O)C(=O)N[C@@H](CC(N)=O)C(=O)N[C@@H](CCCCN)C(=O)N[C@@H](CCCNC(=N)N)C(=O)O)[C@@H](C)O)[C@@H](C)O` [Peptide 89.0165], for which the IC50 in assay [1] was 1.24 µM; in assay [2] it was above 20 µM; in [3] (Binding affinity DRB1 *1101), above 20 µM; in assay [4], 9.38 µM; in [5] (Binding affinity DRB5 *0101) it was above 20 µM; in [6], above 20 µM. Further, the results for the IC50 in assay [7], in [8] and in [9] were above 20 µM, 0.655 µM and 8.25 µM, respectively.
For `CSCC[C@H](NC(=O)[C@H](Cc1ccc(O)cc1)NC(=O)[C@H](Cc1ccc(O)cc1)NC(=O)[C@@H](NC(=O)[C@H](CO)NC(=O)[C@H](CC(=O)O)NC(=O)[C@H](Cc1c[nH]c2ccccc12)NC(=O)[C@H](C)NC(=O)[C@@H](N)C(C)C)C(C)C)C(=O)N[C@H](C(=O)N[C@@H](CC(=O)O)C(=O)N[C@@H](C)C(=O)NCC(=O)N[C@H](C(=O)N[C@@H](Cc1c[nH]c2ccccc12)C(=O)O)[C@@H](C)O)[C@@H](C)O` [Peptide 1601.10], the concentration for half-maximal inhibition (IC50) in [1] is 1.66 µM; in assay [3] (Binding affinity DRB1 *1101) it was above 20 µM; in assay [4] it was 0.587 µM; in assay [5] (Binding affinity DRB5 *0101), above 20 µM; in [6], above 20 µM; in [7], above 20 µM. In addition, the figures for the IC50 in [10], in assay [8] and in assay [9] were above 20 µM, 7.86 µM and 7.43 µM, respectively.
FIMIVGGLV yielded an A1 in assay [11] of 0.0131. The “A2 Bind.” value in assay [12] is recorded as 0.0131.
For FLAIIWVDL, the A1 in [11] worked out at 0.0233. Besides, the “A2 Bind.” value in assay [12] was 0.0233.
As to FLGAAGSTM, in [11], the A1 is on record as 0.0190. The “A2 Bind.” value in assay [12] was 0.0190.
In assay [11], FLYGALLL returned an A1 of 0.0345. The “A2 Bind.” value in assay [12] is given as 0.0345.
With FLYGALLLA, in assay [11], the A1 is on record as 1.9000. Further, the “A2 Bind.” value in assay [12] is 1.9000.
In turn, FMIAATYNFAV had an A1 in [11] of 0.4950. In addition, the “A2 Bind.” value in assay [12] was determined as 0.4950.
As to GLLECCARCLV, the A1 in assay [11] turned out to be 0.0515. For the same molecule, the “A2 Bind.” value in assay [12] was 0.0515.
Turning to GLVGLRIVFA, the A1 in assay [11] stood at 0.0195. In addition, the “A2 Bind.” value in assay [12] came to 0.0195.
With HMLQLTVWGI, the A1 in assay [11] was determined as 0.0677. Besides, the “A2 Bind.” value in [12] stood at 0.0677.
The molecule IAATYNFAV showed an A1 in assay [11] of 0.0540. Moreover, the “A2 Bind.” value in assay [12] was 0.0540.
In [11], IISLWDQSL showed an A1 of 0.0179. Also, the “A2 Bind.” value in [12] amounted to 0.0179.
As for IKFFQGSVISFVNSQ [Peptide 89.0136], the half-maximal inhibitory concentration (IC50) is above 20 µM in assay [2]; above 20 µM in [3]; above 20 µM in [4]; 5.5 µM in assay [5]; 0.011 µM in [6]; above 20 µM in [7]. Besides, the IC50 in assay [10], in assay [8] and in [9] was above 20 µM in each case.
In assay [11], IMIVGGLVGL came in with an A1 of 0.0252. In addition, in assay [12], the “A2 Bind.” value is given as 0.0252.
On to LLGRRGWEV, for which the A1 in assay [11] worked out at 0.0142. Besides, in assay [12], the “A2 Bind.” value came out at 0.0142.
As to LLIAARIVEL, in [11], the A1 is 0.1550. In assay [12], the “A2 Bind.” value was 0.1550.
Molecule LLNATDIAV yielded an A1 in [11] of 0.0607. In addition, in assay [12], the “A2 Bind.” value is given as 0.0607.
LLNATDIAVA yielded an A1 in [11] of 0.0117. In assay [12], the “A2 Bind.” value worked out at 0.0117.
LLQYWSQEL: the A1 in assay [11] is 0.0265. Moreover, in assay [12], the “A2 Bind.” value is 0.0265.
LLVFACSAV: the A1 in assay [11] was determined as 0.0107. In assay [12], the “A2 Bind.” value amounted to 0.0107.
Turning to LLYKLDIVSI, the A1 in [11] was determined as 0.0245. The “A2 Bind.” value in [12] was 0.0245.
The molecule MLQLTVWGI displayed an A1 in assay [11] of 0.2450. Besides, the “A2 Bind.” value in assay [12] was 0.2450.
Consider NCILLYGPANTGKSY [Peptide 89.0087], for which the concentration for half-maximal inhibition (IC50) is 0.28 µM in [1]; above 20 µM in [2]; 8.05 µM in [3] (Binding affinity DRB1 *1101); above 20 µM in assay [4]; 6.46 µM in assay [5] (Binding affinity DRB5 *0101); 13.5 µM in [7]. For the same molecule, the IC50 amounted to 0.066 µM in [10], 0.11 µM in [8] and 7.34 µM in assay [9].
For the molecule NGWFYVEAVVEKKTG [Peptide 90.0029], the IC50 in assay [1] was 0.031 µM; in assay [2], 0.307 µM; in assay [3] (Binding affinity DRB1 *1101) it was 2.74 µM; in [4] it was 0.955 µM; in assay [6], 5.49 µM; in assay [7], 6.4 µM. Further, the values for the concentration for half-maximal inhibition (IC50) in [10], in assay [8] and in assay [9] were above 20 µM, 0.219 µM and 0.027 µM, respectively.
Take NTEVETQQMLQVEGR [Peptide 89.0002]: the IC50 was 1.85 µM in assay [2]; above 20 µM in [3] (Binding affinity DRB1 *1101); above 20 µM in assay [4]; above 20 µM in [5] (Binding affinity DRB5 *0101); 2.33 µM in assay [6]; above 20 µM in assay [7]. The IC50 in [10] was 15.5 µM; in assay [8] it was 4.98 µM; in [9], above 20 µM.
In the case of NTEVETQQMVQQVES [Peptide 89.0059], the IC50 in [1], in assay [2], in assay [3] (Binding affinity DRB1 *1101), in [4], in [5] (Binding affinity DRB5 *0101) and in [7] was above 20 µM throughout. The concentration for half-maximal inhibition (IC50) in assay [10], in [8] and in assay [9] was above 20 µM each time.
For the molecule NTEVETQQMVQVEEQ [Peptide 89.0039], the 50% inhibitory concentration (IC50) in assay [1], in assay [2], in assay [3] (Binding affinity DRB1 *1101), in assay [4], in assay [5] (Binding affinity DRB5 *0101) and in assay [6] was above 20 µM each time. In addition, the 50% inhibitory concentration (IC50) was above 20 µM in [10], 2.63 µM in assay [8] and above 20 µM in assay [9].
As for RLTVSKLMSQLLNIP [89,0100], the half-inhibitory concentration (IC50) was above 20 µM in assay [1], 10.5 µM in [8] and above 20 µM in assay [9].
As to RMYGVLPWI, the A1 in assay [11] came out at 0.1650. Also, the “A2 Bind.” value in assay [12] worked out at 0.1650.
In turn, RVIEVLQRA registered an A1 in [11] of 0.1963. The “A2 Bind.” value in [12] worked out at 0.1963.
With SLCADARMYGV, in [11], the A1 is recorded as 0.0140. Moreover, in assay [12], the “A2 Bind.” value turned out to be 0.0140.
In assay [11], SLLNATDIAV displayed an A1 of 0.1050. Moreover, the “A2 Bind.” value in assay [12] worked out at 0.1050.
With SLLTFMIAA, in [11], the A1 is reported as 0.5300. In assay [12], the “A2 Bind.” value was 0.5300.
With TIIVHLNESV, the A1 in assay [11] was found to be 0.0350. Moreover, the “A2 Bind.” value in assay [12] worked out at 0.0350.
Take TLQCKIKQII: the A1 in [11] was 0.0200. Further, in assay [12], the “A2 Bind.” value was 0.0200.
In the case of TNCMLIQPPKLRSTA [89,0046], the results for the half-inhibitory concentration (IC50) in [1], in [8] and in assay [9] were 1.86 µM, 0.017 µM and 3.22 µM, respectively.
For TVWGIKQLQA, the A1 in assay [11] stood at 0.0150. For the same molecule, the “A2 Bind.” value in assay [12] worked out at 0.0150.
As for WLWYIKIFI, in [11], the A1 turned out to be 0.0355. The “A2 Bind.” value in assay [12] is recorded as 0.0355.
YLVCGERGFFYTKPT [Peptide 9000.0079]: the results for the IC50 in assay [1], in assay [7] and in [9] were above 20.5 µM, above 54.4 µM and above 30.1 µM, respectively.

Source of the values: patent publication US9340577B2, “HLA binding motifs and peptides and their uses” (priority 1992, dated 2016).
